Data published in patent US20100099681A1, “SUBSTITUTED 5-AMINOPYRAZOLES AND USE THEREOF” (BAYER SCHERING PHARMA AKTIENGESELLSCHAFT, priority 2008, published 2010).

Tests used:
Assay type in all cases: cell-based
[1] = biological target: T1, adenosine receptor subtype A1 (A1-Gα16 fusion construct) (Homo sapiens, UniProt P30542); experiment: Indirect determination of adenosine antagonism via gene expression (luciferase reporter), A1; conditions: CHO K1 cells, NFAT-TA-Luc reporter, inhibition of luciferase response to agonist 25 nM CPA
T1 construct: expressed in transfected cells; host or cells: CHO K1
T1 sequence (P30542 with tags, fused parts or gaps): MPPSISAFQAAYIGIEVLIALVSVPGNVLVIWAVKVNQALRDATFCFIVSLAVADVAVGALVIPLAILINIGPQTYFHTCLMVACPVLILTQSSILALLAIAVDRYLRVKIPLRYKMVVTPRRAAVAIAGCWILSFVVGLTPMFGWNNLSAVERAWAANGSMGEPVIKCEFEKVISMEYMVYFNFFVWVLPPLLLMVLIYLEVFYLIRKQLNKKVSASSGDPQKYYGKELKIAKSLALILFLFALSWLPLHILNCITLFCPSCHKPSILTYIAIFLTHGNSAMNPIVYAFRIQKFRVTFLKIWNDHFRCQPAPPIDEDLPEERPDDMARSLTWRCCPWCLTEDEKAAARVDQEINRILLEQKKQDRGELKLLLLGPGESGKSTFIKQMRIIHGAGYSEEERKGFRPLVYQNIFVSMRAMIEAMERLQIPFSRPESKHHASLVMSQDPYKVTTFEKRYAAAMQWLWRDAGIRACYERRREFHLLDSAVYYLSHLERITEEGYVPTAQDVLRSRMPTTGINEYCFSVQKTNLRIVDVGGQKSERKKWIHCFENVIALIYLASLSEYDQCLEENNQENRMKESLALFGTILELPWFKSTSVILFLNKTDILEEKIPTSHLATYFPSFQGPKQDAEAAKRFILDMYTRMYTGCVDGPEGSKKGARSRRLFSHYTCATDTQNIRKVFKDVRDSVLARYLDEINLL
Protocol: For determination of adenosine antagonism on the adenosine receptor subtype A1, once again CHO K1 cells are stably transfected, but this time with a Ca^2+-sensitive reporter construct (NFAT-TA-Luc; Clontech) and an A1-Gα16 fusion construct. This receptor chimera is, in contrast to the native A1 receptor (Gαi-coupling), coupled to phospholipase C. The luciferase is expressed here as a function of the cytosolic Ca^2+ concentration.
(§1) The permanent cell lines are cultured in DMEM/F12-Glutamax (Cat.No. 31331-028; Gibco) with 10% FCS (fetal calf serum) and various additives (10 ml/liter 1M HEPES (Cat.No. 15630; Gibco), 14 ml/liter MEM sodium pyruvate (Cat.No. 11360-039; Gibco) at 37° C. under 5% carbon dioxide, and split twice weekly.
(§2) For testing in the 384-well or 96-well plate format, the cells are sown at 2000 or 5000 cells/well in 25 or 50 μl/well test medium (OptiMEM-Glutamax with 2.5% activated-charcoal-treated FCS, Hyclone) and cultured at 37° C. under 5% carbon dioxide until substance testing. The A2a and A2b cells are sown, 24 h before substance testing, in OptiMEM with 2.5% activated-charcoal-treated FCS (Hyclone). The A1-Gα16 cells are sown, 48 h before substance testing, in OptiMEM-Glutamax with 2.5% activated-charcoal-treated FCS and additives. The substances are pipetted at a final concentration from 1×10^−5 M to 1×10^−11 M to the test cultures, with the DMSO content on the cells not exceeding 0.5%. NECA (5-N-ethyl-carboxamido-adenosine) at a final concentration of 30 nM, which roughly corresponds to the EC50 concentration, is used as agonist for the A2a and A2b cells. 25 nM CPA (N6-cyclopenty adenosine), which roughly corresponds to the EC7-5 concentration, is used as agonist for the A1-Ga16 cells. After adding the substances, the cell plates are incubated for 3-4 h at 37° C. under 5% carbon dioxide. Then 50 μl of a solution consisting to 50% of lysis reagent (Triton buffer, PAA Cat.No. T21-160) and to 50% of luciferase substrate solution (2.5 mM ATP, 0.5 mM luciferin, 0.1 mM coenzyme A, 10 mM Tricin, 1.35 mM magnesium sulfate, 15 mM DTT, pH 7.8) is added to the cells directly before measurement. The luciferase activity is detected with a luminescence reader. The IC50 values are determined, i.e. the concentrations at which the luciferase response, produced by the respective agonist, is inhibited to 50%. The IC50 values are calculated with the computer program GraphPad PRISM (Version 3.02). ZM241385, for the A2a and A2b cells, and DPCPX (1,3-dipropyl-8-cyclopentylxanthine), for the A1-Gα16 cells, are used as reference antagonist.

[2] = biological target: T2, adenosine receptor subtype A2a (Homo sapiens, UniProt P29274); experiment: Indirect determination of adenosine antagonism via gene expression (luciferase reporter), A2a; conditions: CHO K1 cells, CRE luciferase reporter; inhibition of luciferase response to agonist 30 nM NECA
T2 construct: expressed in transfected cells; host or cells: CHO K1
Source text: (§3) Cells of the permanent line CHO K1 (Chinese Hamster Ovary) are stably transfected with a reporter construct (CRE luciferase) and the cDNA for the adenosine receptor subtypes A2a or A2b. A2a or A2b receptors are coupled via Gαs proteins to adenylate cyclase. Through receptor activation, the adenylate cyclase is activated and therefore the cAMP level in the cell is increased. Via the reporter construct, a cAMP-dependent promoter, the change in the cAMP level is coupled to luciferase expression.
as §1, §2

[3] = biological target: T3, adenosine receptor subtype A2b (Homo sapiens, UniProt P29275); experiment: Indirect determination of adenosine antagonism via gene expression (luciferase reporter), A2b; conditions: CHO K1 cells, CRE luciferase reporter; inhibition of luciferase response to agonist 30 nM NECA
T3 construct: expressed in transfected cells; host or cells: CHO K1
T3 sequence (P29275 1-332): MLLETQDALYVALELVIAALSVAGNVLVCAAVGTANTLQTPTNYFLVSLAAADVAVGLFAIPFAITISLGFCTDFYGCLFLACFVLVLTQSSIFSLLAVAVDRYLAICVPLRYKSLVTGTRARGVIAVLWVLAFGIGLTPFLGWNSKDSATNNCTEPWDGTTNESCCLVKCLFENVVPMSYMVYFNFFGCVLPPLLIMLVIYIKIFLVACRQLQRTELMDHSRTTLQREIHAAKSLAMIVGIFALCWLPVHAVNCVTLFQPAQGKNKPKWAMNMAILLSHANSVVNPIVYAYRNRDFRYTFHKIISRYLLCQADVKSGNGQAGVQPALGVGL
Source text: as §3, §1, §2

T2 sequence (P29274 whole entry): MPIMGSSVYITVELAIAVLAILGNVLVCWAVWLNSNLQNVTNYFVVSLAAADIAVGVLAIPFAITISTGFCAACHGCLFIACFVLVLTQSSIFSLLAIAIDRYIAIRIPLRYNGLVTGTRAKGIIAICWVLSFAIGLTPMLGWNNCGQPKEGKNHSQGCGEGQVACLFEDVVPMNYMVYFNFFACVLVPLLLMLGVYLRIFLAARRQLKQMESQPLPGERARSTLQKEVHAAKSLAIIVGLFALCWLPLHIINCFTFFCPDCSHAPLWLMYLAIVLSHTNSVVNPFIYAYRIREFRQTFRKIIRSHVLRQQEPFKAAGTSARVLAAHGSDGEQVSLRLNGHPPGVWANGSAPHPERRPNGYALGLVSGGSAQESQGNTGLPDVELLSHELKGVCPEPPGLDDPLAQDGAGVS

Row | SMILES | IC50 [1] [nM] | IC50 [2] [nM] | IC50 [3] [nM]
1 | Cc1ccccc1-n1nc(C)c(-c2ccc3nccnc3c2)c1Nc1ccc(Cl)cc1C(=O)O [Example 2, 2-{[4-(Quinoxalin-6-yl)-3-methyl-1-(2-methylphenyl)-1H-pyrazol-5-yl]amino}-5-chlorobenzoic acid] | 1 | > 10000 | > 10000
2 | Cc1ccccc1-n1nc(C(F)(F)F)c(-c2ccc3nccnc3c2)c1Nc1ccc(Cl)cc1C(=O)O [Example 6, 2-{[4-(Quinoxalin-6-yl)-1-(2-methylphenyl)-3-(trifluoromethyl)-1H-pyrazol-5-yl]amino}-5-chlorobenzoic acid] | 9.5 | > 10000 | > 10000
3 | COc1ccc(Nc2c(-c3ccc4[nH]ncc4c3)c(C)nn2-c2ccccc2C)c(C(=O)O)c1 [Example 9, 2-{[4-(1H-Indazol-5-yl)-3-methyl-1-(2-methylphenyl)-1H-pyrazol-5-yl]amino}-5-methoxybenzoic acid] | 11.2 | > 10000 | > 10000
4 | COc1ccc(Nc2c(-c3ccc4scnc4c3)c(C)nn2-c2ccccc2C)c(C(=O)O)c1 [Example 11, 2-{[4-(1,3-Benzothiazol-5-yl)-3-methyl-1-(2-methylphenyl)-1H-pyrazol-5-yl]amino}-5-methoxybenzoic acid] | 11.7 | > 10000 | > 10000
5 | CCc1ccc(Nc2c(-c3ccc4nccnc4c3)c(C)nn2-c2ccccc2C)c(C(=O)O)c1 [Example 13, 2-{[4-(Quinoxalin-6-yl)-3-methyl-1-(2-methylphenyl)-1H-pyrazol-5-yl]amino}-5-ethylbenzoic acid] | 1 | > 10000 | > 10000
6 | COc1ccc(Nc2c(-c3cc4nccnc4cc3F)c(C)nn2-c2ccccc2C)c(C(=O)O)c1 [Example 16, 2-{[4-(7-Fluoroquinoxalin-6-yl)-3-methyl-1-(2-methylphenyl)-1H-pyrazol-5-yl]amino}-5-methoxybenzoic acid] | 1.6 | > 10000 | > 10000
7 | COc1ccc(Nc2c(-c3ccc4ncnn4c3)c(C)nn2-c2ccccc2C)c(C(=O)O)c1 [Example 20, 5-Methoxy-2-{[3-methyl-1-(2-methylphenyl)-4-([1,2,4]triazolo[1,5-a]pyridin-6-yl)-1H-pyrazol-5-yl]amino}benzoic acid] | 1.9 | > 10000 | > 10000
8 | CCOc1ccccc1-n1nc(C)c(-c2ccc3nccnc3c2)c1Nc1ccc(OC)cc1C(=O)O [Example 22, 2-{[4-(Quinoxalin-6-yl)-1-(2-ethoxyphenyl)-3-methyl-1H-pyrazol-5-yl]amino}-5-methoxybenzoic acid] | 1 | > 10000 | > 10000
9 | Cc1ccccc1-n1nc(C)c(-c2ccc3cccnc3c2)c1Nc1ccccc1C(=O)O [Example 27, 2-{[4-(Quinolin-7-yl)-3-methyl-1-(2-methylphenyl)-1H-pyrazol-5-yl]amino}benzoic acid] | 99 | > 10000 | > 10000
10 | Cc1ccccc1-n1nc(C)c(-c2ccc3ncc(N(C)C)nc3c2)c1Nc1ccccc1C(=O)O [Example 28, 2-({4-[3-(Dimethylamino)quinoxalin-6-yl]-3-methyl-1-(2-methylphenyl)-1H-pyrazol-5-yl}amino)benzoic acid] | 19 |  | 
11 | Cc1ccccc1-n1nc(C)c(-c2cc3nccnc3c(F)c2OCCO)c1Nc1ccccc1C(=O)O [Example 31, 2-({4-[8-Fluoro-7-(2-hydroxyethoxy)quinoxalin-6-yl]-3-methyl-1-(2-methylphenyl)-1H-pyrazol-5-yl}amino)benzoic acid] | 42 |  | 
12 | COc1ccnc2ccc(-c3c(C)nn(-c4ccccc4C)c3Nc3ccccc3C(=O)O)cc12 [Example 32, 2-{[4-(4-Methoxyquinolin-6-yl)-3-methyl-1-(2-methylphenyl)-1H-pyrazol-5-yl]amino}benzoic acid] | 78 |  | 
13 | Cc1ccccc1-n1nc(C)c(-c2cc(F)c3nccnc3c2)c1Nc1ccccc1C(=O)O [Example 33, 2-{[4-(8-Fluoroquinoxalin-6-yl)-3-methyl-1-(2-methylphenyl)-1H-pyrazol-5-yl]amino}benzoic acid] | 0.6 | > 10000 | > 10000
14 | Cc1nn(-c2ccccc2)c(Nc2ccccc2C(=O)O)c1-c1cc2nccnc2c(F)c1F [Example 36, 2-{[4-(7,8-Difluoroquinoxalin-6-yl)-3-methyl-1-phenyl-1H-pyrazol-5-yl]amino}benzoic acid] | 0.7 | > 10000 | > 10000
15 | Cc1ccccc1-n1nc(C)c(-c2ccn3nc(N)nc3c2)c1Nc1ccccc1C(=O)O [Example 39, 2-{[4-(2-Amino [1,2,4]triazolo[1,5-a]pyridin-7-yl)-3-methyl-1-(2-methylphenyl)-1H-pyrazol-5-yl]amino}benzoic acid] | 1 | > 10000 | > 10000
16 | Cc1ccccc1-n1nc(C)c(-c2cc(F)c3cncnc3c2)c1Nc1ccccc1C(=O)O [Example 43, 2-{[4-(5-Fluoroquinazolin-7-yl)-3-methyl-1-(2-methylphenyl)-1H-pyrazol-5-yl]amino}benzoic acid] | 23 | > 10000 | > 10000
17 | Cc1nn(-c2ccc(F)cc2F)c(Nc2ccccc2C(=O)O)c1-c1cc(F)c2nccnc2c1 [Example 46, 2-{[1-(2,4-Difluorophenyl)-4-(8-fluoroquinoxalin-6-yl)-3-methyl-1H-pyrazol-5-yl]amino}benzoic acid] | 8.5 | > 10000 | > 10000
